This is an account of results in patent publication US20230150977A1, “PYRIDAZINONE COMPOUNDS FOR THE TREATMENT OF NEUROMUSCULAR DISEASES” (Edgewise Therapeutics, Inc., priority 2020, published 2023).

Usually IC50 stands for the concentration that gives 50% inhibition.

Where only a bound is given, the exact number is not on record here.

The first assay addresses skeletal myofibrils (Rabbit Psoas) myosin ATPase. The experiment in a line: Skeletal Myofibril ATPase Assay. Format: biochemical. The following applies: PK/LDH coupled, absorbance at 340 nm. The method, then:
Overview: Myosin ATPase activity was assessed by using a coupled reaction system, in which ADP generated by the myosin ATPase function was coupled to the disappearance of NADH through the pyruvate kinase/lactate dehydrogenase (PK-LDH) system. Myosin ATPase activity produces ADP, which was used as a substrate for PK to produce pyruvate and regenerate ATP. The pyruvate was then used as a substrate by LDH to oxidize NADH to NAD+. The rate of the reaction was monitored through the time-dependent disappearance of NADH using absorbance at 340 nm. Inhibition of ATPase activity by the assayed compounds was indicated by a reduced rate of NADH loss, relative to vehicle-treated controls, over the experimental time window. To assess the selectivity of the assayed compounds for skeletal myofibrils, the compounds were counter-screened in cardiac myofibrils.
Materials: The following stock solutions and reagents were used in the Skeletal Myofibril ATPase Assay:
Stock Solutions of pCa buffer. Combine PIPES, CaCl2, and EGTA solutions with 70 mL of water. Adjust pH to 7.0 and bring final volume to 100 mL.
Buffer A & Buffer B. Buffers were stored on ice until use.
Skeletal Myofibril ATPase Assay Procedure: BSA, ATP, NADH, PEP, and DTT solutions were thawed at room temperature, then transferred to ice. Pellet-frozen myofibrils (approximately twice the required volume) were transferred into a sufficiently large tube and capped. Myofibrils were thawed by rolling in a water bath for approximately 15 min at room temperature and cooled on ice. Buffers A and B were prepared by adjusting volumes as necessary for required number of wells and stored on ice. 0.5 μL of the compounds to be assayed were added into wells of a 384-well plate. Buffers A and B were mixed by inversion immediately prior to use, then 25 μL of each was dispensed using a Multidrop dispenser (Buffer A first, then Buffer B). The absorbance within the wells was measured at 340 nm, using a kinetic protocol in which the wells are read every 1.5-2 min for 1 h. The reaction rate was qualitatively assessed by subtracting the minimum absorbance value from the maximum value for each well, using either the SoftMax Pro plate reader software or a spreadsheet program such as Excel. Using GraphPad Prism 8.0, the data was normalized, with 100% activity defined as the absorbance change in the 1% DMSO vehicle wells and 0% assigned to no change in absorbance over the course of the experiment. The normalized data were fit to a variable-slope four-parameter logistic model, constraining the bottom to be 0 or greater. Compounds of Table 1 to 3 were tested and results of the assay appear in Table 4 herein. A=IC50 is less than or equal to 10 μM; B=IC50 is greater than 10 μM and less than 100 μM; C=IC50 is greater than 100 μM.
`O=c1ccc(-c2ccccc2)nn1CC(O)COCc1ccccc1Cl` (stereo not drawn) [Compound 18, 2-(3-((2-chlorobenzyl)oxy)-2-hydroxypropyl)-6-phenylpyridazin-3(2H)-one] came in with an IC50 of 10 to 100 µM. `O=c1ccc(-c2cnc(OCC(F)(F)F)nc2)nn1CCc1ccncc1` [Compound 19, 2-[2-(pyridin-4-yl)ethyl]-6-[2-(2,2,2-trifluoroethoxy)pyrimidin-5-yl]pyridazin-3-one] returned an IC50 not above 10 µM. `CSc1ccc(-c2ccc(=O)n(C/C=C/c3ccccc3)n2)cc1` [Compound 20, 2-cinnamyl-6-(4-(methylthio)phenyl)pyridazin-3(2H)-one] had an IC50 not above 10 µM. For the compound `O=c1ccc(-c2ccc(Cl)cc2)nn1CC1CCCCC1` [Compound 21, 6-(4-chlorophenyl)-2-(cyclohexylmethyl)pyridazin-3(2H)-one], the half-maximal inhibitory concentration (IC50) was not above 10 µM. In the case of `O=c1ccc(-c2ccc3c(c2)OCCCO3)nn1CCOc1ccc(F)cc1` [Compound 22, 6-(3,4-dihydro-2H-benzo[b][1,4]dioxepin-7-yl)-2-(2-(4-fluorophenoxy)ethyl)pyridazin-3(2H)-one], the IC50 was 10 to 100 µM.

As for `N#CCn1nc(-c2ccc(Br)cc2)ccc1=O` [Compound 23, 2-(3-(4-bromophenyl)-6-oxopyridazin-1(6H)-yl)acetonitrile], the half-inhibitory concentration (IC50) was 10 to 100 µM. `CCOc1ccc(-c2ccc(=O)n(CCNC(=O)CC3CCCC3)n2)cc1` [Compound 24, 2-cyclopentyl-N-(2-(3-(4-ethoxyphenyl)-6-oxopyridazin-1(6H)-yl)ethyl)acetamide]: the IC50 is more than 100 µM. On to `N#CCn1nc(-c2cnc(OCC(F)(F)F)nc2)ccc1=O` [Compound 25, 2-(6-oxo-3-(2-(2,2,2-trifluoroethoxy)pyrimidin-5-yl)pyridazin-1(6H)-yl)acetonitrile], for which the IC50 lay in the range of 10 to 100 µM.

In the case of `CC(C)OCCn1nc(-c2ccc3c(c2)OCCCO3)ccc1=O` [Compound 26, 6-(3,4-dihydro-2H-benzo[b][1,4]dioxepin-7-yl)-2-(2-isopropoxyethyl)pyridazin-3(2H)-one], the IC50 fell in the range of 10 to 100 µM. Regarding `C=C(C)Cn1nc(-c2ccc(Br)cc2)ccc1=O` [Compound 27, 6-(4-bromophenyl)-2-(2-methylallyl)pyridazin-3(2H)-one], the IC50 lay within 10 to 100 µM. In turn, `CCOc1ccc(-c2ccc(=O)n(CCNC(=O)C3CCCC3)n2)cc1` [Compound 28, N-(2-(3-(4-ethoxyphenyl)-6-oxopyridazin-1(6H)-yl)ethyl)cyclopentanecarboxamide] had an IC50 of more than 100 µM. The compound `CC(=O)NCCn1nc(-c2ccc(OC(F)F)cc2)ccc1=O` [Compound 29, N-(2-(3-(4-(difluoromethoxy)phenyl)-6-oxopyridazin-1(6H)-yl)ethyl)acetamide] returned an IC50 of more than 100 µM.

`CS(=O)(=O)NCCn1nc(-c2ccc(OC(F)F)nc2)ccc1=O` [Compound 30, N-(2-(3-(6-(difluoromethoxy)pyridin-3-yl)-6-oxopyridazin-1(6H)-yl)ethyl)methanesulfonamide]: the half-maximal inhibitory concentration (IC50) is more than 100 µM.

With `CC1(Cn2nc(-c3ccc(OC(F)F)nc3)ccc2=O)COC1` [Compound 31, 6-(6-(difluoromethoxy)pyridin-3-yl)-2-((3-methyloxetan-3-yl)methyl)pyridazin-3(2H)-one], the IC50 was more than 100 µM. Compound `CC1(Cn2nc(-c3cnc(OCC(F)(F)F)nc3)ccc2=O)COC1` [Compound 32, 2-((3-methyloxetan-3-yl)methyl)-6-(2-(2,2,2-trifluoroethoxy)pyrimidin-5-yl)pyridazin-3(2H)-one] had an IC50 of more than 100 µM. The compound `CCNC(Cn1nc(-c2ccc(OC(F)F)nc2)ccc1=O)C(F)(F)F` (stereo not drawn) [Compound 33, 6-(6-(difluoromethoxy)pyridin-3-yl)-2-(2-(ethylamino)-3,3,3-trifluoropropyl)pyridazin-3(2H)-one] yielded an IC50 of more than 100 µM. Regarding `O=c1ccc(-c2ccc(OC(F)F)nc2)nn1CCO` [Compound 34, 6-(6-(difluoromethoxy)pyridin-3-yl)-2-(2-hydroxyethyl)pyridazin-3(2H)-one], the 50% inhibitory concentration (IC50) was more than 100 µM. In the case of `O=c1ccc(-c2ccc(Cl)cc2)nn1CC1CCOCC1` [Compound 35, 6-(4-chlorophenyl)-2-((tetrahydro-2H-pyran-4-yl)methyl)pyridazin-3(2H)-one], the IC50 was more than 100 µM. Still for that read-out and setting: in the case of `O=C(CCn1nc(-c2ccccc2)ccc1=O)NC1CCCCC1` [Compound 36, N-cyclohexyl-3-(6-oxo-3-phenylpyridazin-1(6H)-yl)propanamide] it was more than 100 µM; in that of `COc1ccc(-c2ccc(=O)n(CCNC(=O)Nc3cccs3)n2)cc1` [Compound 37, 1-(2-(3-(4-methoxyphenyl)-6-oxopyridazin-1(6H)-yl)ethyl)-3-(thiophen-2-yl)urea], more than 100 µM.

The next assay deals with embryos from zebrafish model of DMD.
Assay: not given
The settings on record: Li and Arner, PLoSONE, 2015; cited from earlier work.
Take `Cc1ccc(S(=O)(=O)NCc2ccccc2)cc1` [BTS, N-benzyl-p-tolyl-sulfonamide]: the “protection of muscles from pathological muscle derangement” value was “protect muscles from pathological muscle derangement”.
